What was measured:
Cortical neurons = test: Aβ-induced neurite degeneration (MAP2 immunostaining); format: cell-based, rat; details: for Aβ-induced neurotoxicity (neurite degeneration): pre-treated 50 μM 16 hours, then Aβ 50 nM 24 hours
Method: Cells were then exposed to excitotoxic NMDA (500 μM for 5 minutes) and viability was assessed using MTT assay after 24 hours. […] Rat cortical neurons (DIV 9) were treated with NMDA (50 μM for 5 minutes) and then with cis-RSV for 24 hours. Cells were then exposed to excitotoxic NMDA (500 μM for 5 minutes) and viability was assessed using MTT assay after 24 hours. […] Cell viability was assessed after 48 hours. […] Representative images (scale bar, 20 μm) for cortical neurons following neurite degeneration (MAP2—neurite marker, magenta and DAPI—nuclear marker, blue). […] Neurons were immunoassayed with anti-MAP2 antibody and quantified for neurite degeneration. The data represents mean±SEM for n=3 experiments with significance measured using Student's paired t-test.
Amyloid Beta oligomers were prepared as described previously, see Ahmed, M. et al. Structural conversion of neurotoxic amyloid-beta (1-42) oligomers to fibrils. Nat Struct Mol Biol 17, 561-567, doi:10.1038/nsmb.1799 (2010) and Wang, X. et al. Elevated Neuronal Excitability Due to Modulation of the Voltage-Gated Sodium Channel Nav1.6 by A beta (1-42). Front Neurosci-Switz 10, doi:ARTN 94 10.3389/fnins.2016.00094 (2016). […]
Neurite degeneration index was calculated as described previously, see Jin, M. et al. Soluble amyloid beta-protein dimers isolated from Alzheimer cortex directly induce Tau hyperphosphorylation and neuritic degeneration. […] The samples to be analyzed for neurite degeneration were stained using the standard immunofluorescence procedure with MAP2 (Alexa fluor 647) for neurites and DAPI staining for the nucleus. Neurite degeneration quantification was done using 5-6 regions of interest of equal sizes from each treatment condition. […] To detect degenerated neurites, we used the particle analyzer module of ImageJ and calculated the percentage of the area of the small fragments or particles (size=3-10 μm^2) to the intact neurites (size>25 μm2) with information derived from the binary images. A degeneration index (DI) was calculated as the fragmented neurite area ratio over intact neurite area. […]

[1] = Spectral analysis (absorption spectrum) of cis- and trans-RSV conformation in solution; format: physicochemical; details: for peak absorption: lower concentrations (≤10 μM), range 250-400 nm
Method: Nature 519, 370-373, doi:10.1038/nature14028 (2015). […] Mol Nutr Food Res 63, e1800715, doi:10.1002/mnfr.201800715 (2019). […] Commercially available cis- and trans-RSV were dissolved in ethanol to generate the stock solutions. […] The dilutions were done in the dark and samples were protected from light. […] Low dose trans-RSV evokes a paradoxical shift in equilibrium towards the cis conformation in solution.
Each stock was diluted 1000× in DMSO to prepare different stocks to obtain the final working solutions and micromolar concentrations to obtain the absorption spectrum. The control solution was prepared using ethanol and DMSO (0.1% ethanol). Absorption was measured using Spectramax 300R at room temperature. Stock solutions were stored at −20° C., and the working solutions were prepared fresh and protected from light during the preparation.

XRCC1 = test: Immunoblot for DNA repair protein XRCC1; format: cell-based, rat; details: 5-50 μM, 4 hours
Text: Ac-K56-H3 is a marker of genomic stability, see Driscoll, R., Hudson, A. & Jackson, S. P. Yeast Rtt109 promotes genome stability by acetylating histone H3 on lysine 56. Science 315, 649-652, doi:10.1126/science.1135862 (2007), and DNA damage, see Tjeertes, J. V., Miller, K. M. & Jackson, S. P. Screen for DNA-damage-responsive histone modifications identifies H3K9Ac and H3K56Ac in human cells. EMBO J 28, 1878-1889, doi:10.1038/emboj.2009.119 (2009), and inhibition of PARP1 causes the downregulation of RAD51, see Hegan, D. C. et al. Inhibition of poly(ADP-ribose) polymerase down-regulates BRCA1 and RAD51 in a pathway mediated by E2F4 and p130. […] The western blot images of the protein levels of HPF1 was quantified using ImageJ.
Cultured neurons (DIV 9-10) were washed once with cold 1×PBS and lysed in cell lysis buffer (20 mM Tris-HCl (pH 7.5), 150 mM NaCl, 1 mM Na2EDTA, 1 mM EGTA, 1% Triton, 2.5 mM sodium pyrophosphate, 1 mM beta-glycerophosphate, 1 mM Na3VO4, 1 μg/ml leupeptin supplemented with protease inhibitor). […] Lysates were quantified using Bio-Rad Protein Assay, and an equal amount of protein was loaded onto a 4 to 12% gradient gel (NuPAGE-Invitrogen). […] Quantification for the western blots was done using ImageJ (Version 1.53c).

Row | SMILES | neurotoxicity (neurite degeneration) by itself (Cortical neurons; 50 μM, without Aβ) | Aβ-induced neurotoxicity (neurite degeneration) (Cortical neurons) | specific absorption peak [1] | conformation in solution ([1]; concentrations ≤10 μM, in DMSO, protected from light) | conformation in solution ([1]; high dose (≥25 μM)) | peak absorption [1] | XRCC1 protein levels (XRCC1) | conformation in solution ([1]; cis-RSV, 5-50 μM)
1 | Oc1ccc(/C=C/c2cc(O)cc(O)c2)cc1 [trans-RSV, trans-resveratrol] | itself induced neurotoxicity | exacerbating Aβtoxicity | 330 nm | exists majorly in cis-RSV conformation | retains its trans conformation | 295 nm | downregulated the protein levels | 
2 | Oc1ccc(/C=C\c2cc(O)cc(O)c2)cc1 [cis-RSV, cis-resveratrol] |  | protected against Aβtoxicity | 295 nm |  |  | 295 nm | upregulated them | retains its conformation across the different doses
